Test results published in US11505548B2, “Heterocyclic compounds and their use for treatment of helminthic infections and diseases” (Celgene Corporation, priority 2019, dated 2022).

Tested on: microfilariae of Dirofilaria immitis
Assay: Dirofilaria immitis, Microfilaria (DiMF) Assay
Assay type: cell-based
Settings: read-out: D. immitis activity level (IC50 or MED)
Procedure, shortened: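 D. immitis microfilariae were incubated in medium with DMSO-diluted compounds for about 72 h. Survival or paralysis was scored subjectively under the microscope. Values are Minimum Effective Dose (MED).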

CC(C)Oc1cnc(-c2nsc(Nc3ncccc3C(=O)N(C)C)n2)cc1C(F)F [Compound 260, 2-(3-(4-(difluoro-methyl)-5-isopropoxy-pyridin-2-yl)-1,2,4-thiadiazol-5-ylamino)-N,N-dimethyl-nicotinamide]
IC50: 200 to 500 nM

c1ccc(-c2nsc(Nc3ccc(OC4CCOCC4)cn3)n2)nc1 [Cmpd 9, 3-(pyridin-2-yl)-N-(5-(tetrahydro-2H-pyran-4-yloxy)pyridin-2-yl)-1,2,4-thiadiazol-5-amine]
IC50: 500 to 5000 nM

COc1cnc(Nc2nc(-c3cc(C(=O)N(C)C)c(OC(C)C)cn3)ns2)c(C(F)(F)F)c1 [Compound 264, 5-isopropoxy-2-(5-(5-methoxy-3-(trifluoro-methyl)pyridin-2-ylamino)-1,2,4-thiadiazol-3-yl)-N,N-dimethyliso-nicotinamide]
IC50: 200 to 500 nM

CC(C)Oc1ccc(-c2nsc(Nc3ncccc3C(=O)N(C)C)n2)nc1 [Compound 188, 2-(3-(5-isoprop-oxypyridin-2-yl)-1,2,4-thiadiazol-5-ylamino)-N,N-dimethyl nicotinamide]
IC50: 500 to 5000 nM

CC(C)Oc1ccc(-c2nsc(Nc3ncccc3C(=O)N3CCCC3)n2)nc1 [Compound 190, (2-(3-(5-isoprop-oxypyridin-2-yl)-1,2,4-thiadiazol-5-ylamino)pyridin-3-yl) (pyrrolidin-1-yl) methanone]
IC50: 500 to 5000 nM

CC(C)c1ccnc(-c2nsc(Nc3ncccc3N(C)C(=O)C3CC3)n2)c1 [Compound 217, N-(2-(3-(4-isopropylpyridin-2-yl)-1,2,4-thiadiazol-5-ylamino)pyridin-3-yl)-N-methylcyclo-propanecarbox-amide]
IC50: 500 to 5000 nM

Cc1cnc(Nc2nc(-c3cc(OC4COC4)ccn3)ns2)c(C(F)(F)F)c1 [Compound 275, N-(5-methyl-3-(trifluoromethyl)pyridin-2-yl)-3-(4-(oxetan-3-yloxy)pyridin-2-yl)-1,2,4-thiadiazol-5-amine]
IC50: < 200 nM

COc1ccc(-c2nsc(Nc3ccc(C(F)(F)F)cn3)n2)nc1 [Compound 209, 3-(5-methoxy-pyridin-2-yl)-N-(5-(trifluoromethyl)pyridin-2-yl)-1,2,4-thiadiazol-5-amine]
IC50: 500 to 5000 nM

CC(C)Oc1cnc(-c2nsc(Nc3ncccc3C(=O)N(C)C3CC3)n2)cc1C(F)(F)F [Compound 263, N-cyclo-propyl-2-(3-(5-isopropoxy-4-(trifluoro-methyl)pyridin-2-yl)-1,2,4-thiadiazol-5-ylamino)-N-methyl-nicotinamide]
IC50: < 200 nM

CN1CCC(Oc2ccnc(-c3nsc(Nc4ncccc4C(F)(F)F)n3)c2)CC1 [Compound 62, 3-(4-(1-methyl-piperidin-4-yloxy)pyridin-2-yl)-N-(3-(trifluoromethyl)pyridin-2-yl)-1,2,4-thiadiazol-5-amine]
IC50: 500 to 5000 nM

Cc1cccnc1-c1nsc(Nc2ccc(N3CCCC3)cn2)n1 [Compound 51, 3-(3-methyl-pyridin-2-yl)-N-(5-(pyrrolidin-1-yl)pyridin-2-yl)-1,2,4-thiadiazol-5-amine]
IC50: 500 to 5000 nM

CC(=O)N(C)c1cc(C(F)(F)F)cnc1Nc1nc(-c2cc(C(F)(F)F)c(OC(C)C)cn2)ns1 [Compound 268, N-(2-(3-(5-isopropoxy-4-(trifluoromethyl)pyridin-2-yl)-1,2,4-thiadiazol-5-ylamino)-5-(trifluoromethyl)pyridin-3-yl)-N-methylacetamide]
IC50: < 200 nM

CC(C)Oc1cnc(-c2nsc(Nc3ncccc3C(C)C)n2)cc1C(N)=O [Compound 198, 5-isopropoxy-2-(5-(3-isopropylpyridin-2-ylamino)-1,2,4-thiadiazol-3-yl)isonicotin-amide]
IC50: 500 to 5000 nM

CN1CCC(Oc2ccc(-c3nsc(Nc4ncccc4C(F)(F)F)n3)nc2)CC1 [Compound 55, 3-(5-(1-methyl-piperidin-4-yloxy)pyridin-2-yl)-N-(3-(trifluoromethyl)pyridin-2-yl)-1,2,4-thiadiazol-5-amine]
IC50: 500 to 5000 nM
